In PubChem BioAssay (NCI):
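Cells were grown in 96-well plates and exposed to each compound for 48 hours at five concentrations; endpoints were interpolated linearly between bracketing concentrations, or set to the highest concentration if not reached. GI50 marks 50% less growth. TGI is the concentration that stops growth completely.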

Columns and labels:
Experiment in all cases: inhibition of tumour cell growth, NCI panel, 48 h
[1] = tested on: NCI/ADR-RES ovarian
[2] = tested on: MDA-N
[3] = tested on: SF-295 CNS
[4] = tested on: 786-0 renal
[5] = tested on: A498 renal
[6] = tested on: LOX IMVI melanoma
[7] = tested on: CAKI-1 renal
[8] = tested on: HT29 colon
[9] = tested on: HS 578T breast
[10] = tested on: HOP-62 NSCLC
[11] = tested on: ACHN renal
[12] = tested on: SNB-75 CNS

Compound	TGI [1] [µM]	TGI [2] [µM]	TGI [3] [µM]	TGI [4] [µM]	TGI [5] [µM]	TGI [6] [µM]	TGI [7] [µM]	TGI [8] [µM]	TGI [9] [µM]	TGI [10] [µM]	TGI [11] [µM]	TGI [12] [µM]	GI50 [7] [µM]	GI50 [12] [µM]
COc1c(O)cc(C(=O)O[C@@H]2Cc3c(O)cc(O)cc3O[C@@H]2c2cc(O)c(O)c(O)c2)cc1O	> 100	58.4	46.2	33.8	> 100	40.2	> 100	37.1	> 100	92.3	> 100			
S=C1SC(c2ccc(Cl)cc2)(c2ccc(Cl)cc2)c2ccccc21	> 100	> 100	> 100	> 100	> 100	> 100	> 100	> 100	> 100	> 100	> 100	> 100		
Cc1ccc(C)c(NC(=O)C(Cc2c[nH]c3ccccc23)NC(=O)OCc2ccccc2)c1 (stereo not drawn)	33	> 100	> 100	39.3	> 100	> 100	56.7	45.1	> 100	> 100	> 100	27.9		
CCOC1SC(SC)=NN1C(=O)C(OC(C)=O)C(OC(C)=O)C(OC(C)=O)C(OC(C)=O)C(=O)N1N=C(SC)SC1OCC (stereo not drawn)	> 100	> 100	> 100	> 100	> 100	> 100	> 100	> 100	96.2	> 100	> 100	> 100		
CC1(C)OC(=S)N(c2ccccc2)C12C=Cc1cc3ccccc3cc1O2 (stereo not drawn)	> 100	> 100	> 100	> 100	> 100	> 100	> 100	> 100	> 100	> 100	> 100	> 100		
CCOP(C)(=O)C(Nc1ccc(F)cc1)c1ccc(F)cc1 (stereo not drawn)	> 100	> 100	> 100	> 100	> 100	> 100	> 100	> 100	> 100	> 100	> 100			
CC(=O)OCc1cn(S(=O)(=O)c2ccc(C)cc2)cn1	> 100	52.6	> 100	> 100	> 100	> 100	> 100	> 100	> 100	> 100	> 100	> 100		
Cn1cnc([N+](=O)[O-])c1Sc1nc(N)nc2c1ncn2Cc1ccccc1	> 100	44.9	> 100	68.2	68.3	65.4	31.1	67.8	86.5	55.4	31.3	> 100		
CC1Cc2cc(O)ccc2C2[C@@H]1C1CC[C@H](O)[C@@]1(C)C[C@@H]2O[N+](=O)[O-] (stereo partly drawn)	38.9	6.07	39.2	65.3	78.7	32.7	73.6	31.1	22.3	44.4	> 100	> 100		
O=C1C[C@H]2[C@H](c3ccc(Br)cc3)[C@H]3C(=O)c4ccccc4NC(=O)[C@@H]3[C@@]2(O)c2ccccc2N1	61.9	55	> 100	99.2	78.8	37.1	28.3	30.8	> 100	49.7	97.7	41.1		
CC(=O)Nc1ccc(-c2nc3ccccc3s2)cc1O	64.4	> 100	> 100	> 100	> 100	> 100	> 100	> 100	> 100	> 100	> 100	> 100		
O=C1NN(c2ccccc2)C(=O)C2C3c4ccccc4C(c4ccccc43)C12 (stereo not drawn)	> 100	> 100	> 100	> 100	> 100	> 100	> 100	> 100	> 100	> 100	> 100	> 100		
O=C(O)c1cc(Sc2ccc([N+](=O)[O-])c(C(=O)O)c2)ccc1[N+](=O)[O-]	> 100	> 100	> 100	> 100	> 100	> 100	> 100	> 100	> 100	> 100	> 100	> 100	> 100	> 100
CC(=O)O[C@H]1[C@@H](N2CCN(C)CC2)C[C@H]2[C@@H]3CC=C4C[C@@H](N5CCCC5)CC[C@]4(C)[C@H]3CC[C@@]21C	> 100	> 100	53.5	> 100	> 100	39.4	> 100	> 100	> 100	> 100	> 100	> 100		
CC(NC(=O)C(N)CC(=O)O)NC(=O)N1CCCC1 (stereo not drawn)	> 100	> 100	> 100	> 100	> 100	> 100	> 100	> 100	> 100	> 100	> 100	> 100		
COC(=O)CCC(=O)c1ccc2c(c1)CC1(C2)Cc2ccc3c(c2C1)CCCC3=O (stereo not drawn)	> 100	47.9	79.3	> 85.2	82.8	> 100	78.1	> 76.9	> 100	97.4	> 70.2	> 100		
Cc1cc(-c2nc3cc(F)c(F)cc3s2)ccc1N	> 100	> 100	> 82.9	> 100	> 100	> 100	> 100	> 100	> 100	> 71.3	> 100	> 92.9		
CCCCOC(=O)C1CN2C(=NC1(C(F)(F)F)C(F)(F)F)Sc1ccccc12 (stereo not drawn)	> 100	> 100	> 100	> 100	> 100	> 100	> 100	> 100	> 100	> 100	> 100	> 100		
COC(=O)c1scc(N)c1-n1ccc(=O)[nH]c1=O	> 100	> 100		> 100	> 100	> 100	> 100	> 100	> 100		> 100	> 100		

Compound	TGI [1] [µM]	TGI [2] [µM]	TGI [3] [µM]	TGI [4] [µM]	TGI [5] [µM]	TGI [6] [µM]	TGI [7] [µM]	TGI [8] [µM]	TGI [9] [µM]	TGI [10] [µM]	TGI [11] [µM]	TGI [12] [µM]	GI50 [7] [µM]	GI50 [12] [µM]
Cc1nc(C)c(N2CCN(C#N)CC2)c(=O)[nH]1	> 100	> 100	> 100	> 100	> 100	> 100	> 100	> 100	> 100	> 100	> 100	> 100		
CC(C)=CCC[C@H](C)[C@H]1CC[C@@H](C)c2cc(O)c(C)cc21	36.7	32.1	32.2	33.3	30.7	32	31.9	37.2	37.8	35.6	30.6	38.6		
O=C(/C(=C/c1cccs1)c1ccccc1)c1ccccc1	> 100	> 100	> 100	> 100	> 100	> 100	> 100	> 100	> 100	58.2	> 100	> 100		
CC1(C)CC[C@]2(C(=O)O)CC[C@]3(C)C(=CC[C@@H]4[C@@]5(C)CC[C@H](OC6OC(CO)C(O)C(O)C6OC6OC(CO)C(O)C(O)C6O)C(C)(C)[C@@H]5CC[C@]43C)[C@@H]2C1 (stereo partly drawn)	49.2	34.8	36	30.1	34	82.4	35.4	30.2	51.9	32.7	32.7	36.3		
O=C(N/C(=C\c1ccccc1)C1Nc2ccccc2C(=O)O1)c1ccccc1 (stereo not drawn)	70.9	56.6	> 100	59	> 100	36.1	> 100	> 100	99.7	61.6	> 100	> 100		
Cc1cccc(NC(=S)N/N=C(/c2ccccc2)c2ccccn2)c1	6.63	20.8	10.7	14.6	13.7	11.5	12.7	17.4	76.1	17.5	11.8	22.1		
CCN(CC)c1nc(N(C)C)c2cc(OC)ccc2n1	> 100	> 100	> 100	86.2	> 100	> 100	> 100	> 100	> 100	> 100	> 100			
CC(=O)OC1COC(Nn2c(=O)[nH]c3ccccc3c2=O)C(OC(C)=O)C1OC(C)=O (stereo not drawn)	> 100	> 100	> 100	> 100	> 100	> 100	> 100	> 100	> 100	> 100	> 100	> 100		
CN1CCN(c2ccc(-n3cc(C(=O)O)c(=O)c4cc(F)c(N5CCN(C)CC5)cc43)nc2)CC1	> 100	> 100	> 100	> 100	> 100	> 100	> 100	> 100	> 100	> 100		> 100		
Cc1n[nH]c(=O)n1N1C(=O)c2ccccc2C1=O	> 100	> 100	> 100	> 100	> 100	> 100	> 100	> 100	> 100	> 100	> 100	> 100		
[N-]=[N+]=NC1=C(c2ccccc2)C(=O)c2cccc3cccc1c23	> 100	> 100	26.5	88.1	8.29	> 100	> 100	27	48.6	91.1		76.5		
Cc1c2cccc-2c(OCCO)cc2c1[nH]c1ccccc12	> 23.4	7.9	14.7	7.14	> 31.6	4.97	3.67	14.2	> 49.6	14.5	2.72	3.95		
Cc1nc2c(ncn2CCO)c(=O)[nH]1	> 100	> 100	> 100	> 100	> 100	> 100	> 100	> 100	> 100	> 100	> 100	> 100		
N=c1oc2c(Cl)cc(Cl)cc2cc1C(=O)Nc1ccccn1	> 100	> 100	> 100	> 100	> 100		> 100	> 100	48.4	> 100	64.4	46.1		
C=C(C(=O)O)[C@@H]1C[C@@H]2O[C@H]1CC(C)=CCC/C(C)=C/CC[C@@]2(C)O	> 100	> 100	> 100	> 100	> 100	> 100	> 100		> 100		> 100	> 100		
CCN(CC)C1=Nc2ccccc2-n2c(C)cnc2C1	> 100	> 100	> 100	> 100	> 100	> 100	> 100	> 100	> 100		> 100	> 100		
CCc1n[nH]c(=O)n1NC(=O)/C=C\C(=O)O	> 100	> 100	> 100	> 100	> 100		> 100	> 100	> 100	> 100		> 100		
CC1(C)O[C@@H]2[C@@H]3OC(=O)C[C@@H]3[C@@H](COCc3ccccc3)[C@@H]2O1	> 100	> 100	> 100	> 100	> 100	> 100	> 100	> 100	> 100	> 100	> 100	> 100		
